The values that follow come from patent US11834454B2, “Alkynylphenylbenzamide compounds and applications thereof” (SHENZHEN NEWDEL BIOTECH CO., LTD., priority 2021, dated 2023).

Assay [1] addresses T1, BaF3-ETV6-NTRK3-G623E (Homo sapiens, UniProt Q16288, G623E).
T1 construct: constructed pCDNA3.1(+) plasmid vector carrying genes such as; fused on or other part: P41212 (Transcription factor ETV6)
Nature of the assay: Drug-resistant cell proliferation inhibition (CCK-8). The conditions noted are these: 72 hours, read-out: drug-resistant cell viability IC50. The assay is classed as cell-based, mouse. An excerpt:
(§1) BaF3 cells (mouse pre-B cells) used in this experiment were purchased from Japan Cell Bank, all of the monoclonal stable strains, BaF3-CD74-NTRK1-G667C, BaF3-CD74-NTRK1-F589L, BaF3-CD74-NTRK1-G595R, BaF3-CD74-NTRK1-G667A, BaF3-CD74-NTRK1-V573M, BaF3-ETV6-NTRK2-G639R, BaF3-ETV6-NTRK2-G709C, BaF3-ETV6-NTRK2-V617M, BaF3-ETV6-NTRK2-F633L, BaF3-ETV6-NTRK3-G696C, BaF3-ETV6-NTRK3-G696A, BaF3-ETV6-NTRK3-G623R, BaF3-ETV6-NTRK3-G623E, BaF3-ETV6-NTRK3-F617L and BaF3-ETV6-NTRK3-V601M were constructed by our laboratory, and were identified by experiments such as positive control, protein expression and gene sequencing.
(§2) The brief steps for stable strains construction were as follows: constructed pCDNA3.1(+) plasmid vector carrying genes such as BaF3-CD74-NTRK1-G667C, BaF3-CD74-NTRK1-F589L, BaF3-CD74-NTRK1-G595R, BaF3-CD74-NTRK1-G667A, BaF3-CD74-NTRK1-V573M, BaF3-ETV6-NTRK2-G639R, BaF3-ETV6-NTRK2-G709C, BaF3-ETV6-NTRK2-V617M, BaF3-ETV6-NTRK2-F633L, BaF3-ETV6-NTRK3-G696C, BaF3-ETV6-NTRK3-G696A, BaF3-ETV6-NTRK3-G623R, BaF3-ETV6-NTRK3-G623E, BaF3-ETV6-NTRK3-F617L and BaF3-ETV6-NTRK3-V601M; the plasmid was electroporated into Ba/F3 cells using Amaxa® Cell Line Nucleofector® Kit V; 48 hours after of electroporation, geneticin (G418) with a final concentration of 1000 μg/mL was added to screen for two weeks, and the interleukin 3 (IL3) was removed to continue screening to obtain polyclonal stable strains; and then single clones were selected by limiting dilution method; the stable strains were then identified by the positive drugs, Western Blot (WB), and gene sequencing; the correct monoclonal through identification can be used to study the cell proliferation inhibitory activity of the inhibitors.
(§3) Cell proliferation inhibitory activity study: The cells in logarithmic growth phase were seeded into 96-well plates at 8000-12000 cells/well, and the inhibitors at different concentrations of (0-10 μM) were added the next day, and the culture was continued for 72 hours; then 10 μL of Cell Counting Kit-8 Cell Counting Reagent (CCK-8 Reagent) was added to each well, and continued to incubate for 1-3 hours; then its absorbance at 450 nm and 650 nm were measured with a super microplate reader. The median inhibitory concentration (IC50) was calculated using medical graphing software (GraphPad Prism 8.0.0).

For assay [2], the target named is T2, BaF3-CD74-NTRK1-G595R (Homo sapiens, UniProt P04629, G595R).
T2 construct: constructed pCDNA3.1(+) plasmid vector carrying genes such as; fused on or other part: P04233 (HLA class II histocompatibility antigen gamma chain)
The assay is described as above. The assay is classed as cell-based, mouse. The conditions noted are these: 72 hours, read-out: drug-resistant cell viability IC50.
Excerpt: as §1, §2, §3

Assay [3] deals with T3, BaF3-ETV6-NTRK3-G623R (Homo sapiens, UniProt Q16288, G623R).
T3 construct: constructed pCDNA3.1(+) plasmid vector carrying genes such as; fused on or other part: P41212 (Transcription factor ETV6)
Described as above. The format is cell-based, mouse. The conditions noted are these: 72 hours, read-out: drug-resistant cell viability IC50.
Excerpt: as §1, §2, §3

In assay [4] the target is T4, BaF3-ETV6-NTRK3-F617L (Homo sapiens, UniProt Q16288, F617L).
T4 construct: constructed pCDNA3.1(+) plasmid vector carrying genes such as; fused on or other part: P41212 (Transcription factor ETV6)
The assay is described as above. The format is cell-based, mouse. The conditions noted are these: 72 hours, read-out: drug-resistant cell viability IC50.
Excerpt: as §1, §2, §3

Assay [5] addresses T5, BaF3-CD74-NTRK1-G667A (Homo sapiens, UniProt P04629, G667A).
T5 construct: constructed pCDNA3.1(+) plasmid vector carrying genes such as; fused on or other part: P04233 (HLA class II histocompatibility antigen gamma chain)
The assay is described as above. The assay is classed as cell-based, mouse. The conditions noted are these: 72 hours, read-out: drug-resistant cell viability IC50.
Excerpt: as §1, §2, §3

For assay [6], the target named is T6, BaF3-CD74-NTRK1-F589L (Homo sapiens, UniProt P04629, F589L).
T6 construct: fused on or other part: P04233 (HLA class II histocompatibility antigen gamma chain)
Described as above. The format is cell-based, mouse. The conditions noted are these: 72 hours, read-out: drug-resistant cell viability IC50.
Excerpt: as §1, §2, §3

Assay [7] has as its target T7, BaF3-ETV6-NTRK3-G696A (Homo sapiens, UniProt Q16288, G696A).
T7 construct: constructed pCDNA3.1(+) plasmid vector carrying genes such as; fused on or other part: P41212 (Transcription factor ETV6)
The description is as above. The conditions noted are these: 72 hours, read-out: drug-resistant cell viability IC50. The assay is classed as cell-based, mouse.
Excerpt: as §1, §2, §3

Assay [8] has as its target T8, BaF3-ETV6-NTRK3-V601M (Homo sapiens, UniProt Q16288, V601M).
T8 construct: constructed pCDNA3.1(+) plasmid vector carrying genes such as; fused on or other part: P41212 (Transcription factor ETV6)
The description is as above. The assay is classed as cell-based, mouse. The conditions noted are these: 72 hours, read-out: drug-resistant cell viability IC50.
Excerpt: as §1, §2, §3

Assay [9] concerns the target T9, BaF3-CD74-NTRK1-V573M (Homo sapiens, UniProt P04629, V573M).
T9 construct: constructed pCDNA3.1(+) plasmid vector carrying genes such as BaF3-CD74-NTRK1-G667C; fused on or other part: P04233 (HLA class II histocompatibility antigen gamma chain)
The description is as above. The format is cell-based, mouse. The conditions noted are these: 72 hours, read-out: drug-resistant cell viability IC50.
Excerpt: as §1, §2, §3

Assay [10] deals with T10, BaF3-CD74-NTRK1-G667C (Homo sapiens, UniProt P04629, G667C).
T10 construct: fused on or other part: P04233 (HLA class II histocompatibility antigen gamma chain)
The assay is described as above. The format is cell-based, mouse. The conditions noted are these: 72 hours, read-out: drug-resistant cell viability IC50.
Excerpt: as §1, §2, §3

Assay [11] deals with T11, BaF3-ETV6-NTRK3-G696C (Homo sapiens, UniProt Q16288, G696C).
T11 construct: constructed pCDNA3.1(+) plasmid vector carrying genes such as; fused on or other part: P41212 (Transcription factor ETV6)
The description is as above. The conditions noted are these: 72 hours, read-out: drug-resistant cell viability IC50. The format is cell-based, mouse.
Excerpt: as §1, §2, §3

Assay [12] addresses T12, TRKA (Homo sapiens, UniProt P04629).
T12 construct: purchased American Life Technologies PV3144
Nature of the assay: Z'-LYTE kinase activity detection, TRKA. The format is biochemical.

Assay [13] concerns the target T13, BaF3-ETV6-NTRK2-G639R (Homo sapiens, UniProt Q16620, G623R).
T13 construct: constructed pCDNA3.1(+) plasmid vector carrying genes such as; fused on or other part: P41212 (Transcription factor ETV6)
Nature of the assay: Drug-resistant cell proliferation inhibition (CCK-8). The conditions noted are these: 72 hours, read-out: drug-resistant cell viability IC50. The format is cell-based, mouse.
Excerpt: as §1, §2, §3

The target of assay [14] is T14, BaF3-ETV6-NTRK2-V617M (Homo sapiens, UniProt Q16620, V601M).
T14 construct: constructed pCDNA3.1(+) plasmid vector carrying genes such as; fused on or other part: P41212 (Transcription factor ETV6)
Described as above. The format is cell-based, mouse. The conditions noted are these: 72 hours, read-out: drug-resistant cell viability IC50.
Excerpt: as §1, §2, §3

Assay [15] concerns the target T15, BaF3-ETV6-NTRK2-F633L (Homo sapiens, UniProt Q16620, F617L).
T15 construct: constructed pCDNA3.1(+) plasmid vector carrying genes such as; fused on or other part: P41212 (Transcription factor ETV6)
The description is as above. The format is cell-based, mouse. The conditions noted are these: 72 hours, read-out: drug-resistant cell viability IC50.
Excerpt: as §1, §2, §3

In assay [16] the target is T16, BaF3-ETV6-NTRK2-G709C (Homo sapiens, UniProt Q16620, G693C).
T16 construct: constructed pCDNA3.1(+) plasmid vector carrying genes such as; fused on or other part: P41212 (Transcription factor ETV6)
The assay is described as above. The assay is classed as cell-based, mouse. The conditions noted are these: 72 hours, read-out: drug-resistant cell viability IC50.
Excerpt: as §1, §2, §3

T9 sequence (P04629 510-796 V573M limits assumed): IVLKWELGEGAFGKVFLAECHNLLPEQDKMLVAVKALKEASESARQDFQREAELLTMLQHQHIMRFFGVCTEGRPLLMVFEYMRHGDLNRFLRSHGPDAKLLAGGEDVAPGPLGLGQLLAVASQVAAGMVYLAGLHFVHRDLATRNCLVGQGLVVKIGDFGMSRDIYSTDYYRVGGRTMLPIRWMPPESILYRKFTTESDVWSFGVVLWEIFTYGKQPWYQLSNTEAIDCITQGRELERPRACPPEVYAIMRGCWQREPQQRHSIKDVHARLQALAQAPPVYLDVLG
T4 sequence (Q16288 whole entry F617L, the tested form may be a part): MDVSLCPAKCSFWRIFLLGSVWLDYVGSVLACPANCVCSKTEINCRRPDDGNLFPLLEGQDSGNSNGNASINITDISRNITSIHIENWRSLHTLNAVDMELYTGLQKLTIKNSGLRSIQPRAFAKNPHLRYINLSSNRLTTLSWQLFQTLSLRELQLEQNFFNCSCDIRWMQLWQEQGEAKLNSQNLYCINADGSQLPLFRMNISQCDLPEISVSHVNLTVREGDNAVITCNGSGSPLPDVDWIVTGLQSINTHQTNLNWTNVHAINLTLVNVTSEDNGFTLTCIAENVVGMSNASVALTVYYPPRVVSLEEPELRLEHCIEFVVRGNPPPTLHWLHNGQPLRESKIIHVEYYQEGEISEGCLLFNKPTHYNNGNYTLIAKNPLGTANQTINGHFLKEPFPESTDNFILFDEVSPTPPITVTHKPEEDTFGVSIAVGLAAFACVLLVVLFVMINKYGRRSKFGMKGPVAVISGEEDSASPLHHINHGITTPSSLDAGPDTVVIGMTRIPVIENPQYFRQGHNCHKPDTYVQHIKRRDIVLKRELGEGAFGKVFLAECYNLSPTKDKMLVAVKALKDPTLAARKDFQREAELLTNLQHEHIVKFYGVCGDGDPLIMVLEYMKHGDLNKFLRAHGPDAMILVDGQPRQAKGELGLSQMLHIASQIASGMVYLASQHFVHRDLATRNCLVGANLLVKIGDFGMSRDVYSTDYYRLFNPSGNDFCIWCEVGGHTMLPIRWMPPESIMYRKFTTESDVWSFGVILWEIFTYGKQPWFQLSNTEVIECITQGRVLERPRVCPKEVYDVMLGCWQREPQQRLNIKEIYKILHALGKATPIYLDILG
T3 sequence (Q16288 whole entry G623R, the tested form may be a part): as the sequence (Q16288 whole entry F617L, the tested form may be a part) above, with L617F, G623R counted along it
T7 sequence (Q16288 whole entry G696A, the tested form may be a part): as the sequence (Q16288 whole entry F617L, the tested form may be a part) above, with L617F, G696A counted along it
T11 sequence (Q16288 whole entry G696C, the tested form may be a part): as the sequence (Q16288 whole entry F617L, the tested form may be a part) above, with L617F, G696C counted along it
T12 sequence (P04629 33-796): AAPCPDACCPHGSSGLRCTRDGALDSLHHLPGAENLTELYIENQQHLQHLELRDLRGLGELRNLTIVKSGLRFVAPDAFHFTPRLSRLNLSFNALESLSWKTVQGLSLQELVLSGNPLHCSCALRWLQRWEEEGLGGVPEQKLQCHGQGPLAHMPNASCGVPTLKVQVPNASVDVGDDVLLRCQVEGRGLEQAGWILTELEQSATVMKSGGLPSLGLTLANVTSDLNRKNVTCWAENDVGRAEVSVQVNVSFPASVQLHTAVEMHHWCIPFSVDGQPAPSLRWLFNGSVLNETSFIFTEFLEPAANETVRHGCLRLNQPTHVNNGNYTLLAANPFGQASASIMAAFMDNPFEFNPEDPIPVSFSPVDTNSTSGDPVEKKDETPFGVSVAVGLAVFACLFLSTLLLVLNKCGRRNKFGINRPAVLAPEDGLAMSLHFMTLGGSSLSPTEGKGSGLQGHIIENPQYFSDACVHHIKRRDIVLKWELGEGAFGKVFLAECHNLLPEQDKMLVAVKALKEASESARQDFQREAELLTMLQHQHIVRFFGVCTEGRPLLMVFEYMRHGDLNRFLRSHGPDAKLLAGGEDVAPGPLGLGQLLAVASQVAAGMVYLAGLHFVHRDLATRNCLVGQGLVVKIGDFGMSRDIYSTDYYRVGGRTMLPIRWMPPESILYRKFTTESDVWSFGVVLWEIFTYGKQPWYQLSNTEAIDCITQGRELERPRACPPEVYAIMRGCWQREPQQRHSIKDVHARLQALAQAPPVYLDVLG
T6 sequence (P04629 510-796 F589L limits assumed): as the sequence (P04629 510-796 V573M limits assumed) above, with M64V, F80L counted along it
T15 sequence (Q16620 538-822 F617L limits assumed): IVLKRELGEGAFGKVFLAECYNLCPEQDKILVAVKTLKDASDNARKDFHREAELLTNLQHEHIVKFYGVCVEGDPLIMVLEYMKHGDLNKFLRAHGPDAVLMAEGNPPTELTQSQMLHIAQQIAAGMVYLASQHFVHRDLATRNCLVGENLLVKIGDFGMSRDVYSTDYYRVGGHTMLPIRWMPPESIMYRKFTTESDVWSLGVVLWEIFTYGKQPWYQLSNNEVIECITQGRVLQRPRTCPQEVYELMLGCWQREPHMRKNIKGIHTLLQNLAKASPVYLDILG
T1 sequence (Q16288 whole entry G623E, the tested form may be a part): as the sequence (Q16288 whole entry F617L, the tested form may be a part) above, with L617F, G623E counted along it
T8 sequence (Q16288 whole entry V601M, the tested form may be a part): as the sequence (Q16288 whole entry F617L, the tested form may be a part) above, with V601M, L617F counted along it
T13 sequence (Q16620 538-822 G623R limits assumed): as the sequence (Q16620 538-822 F617L limits assumed) above, with L80F, G86R counted along it
T5 sequence (P04629 510-796 G667A limits assumed): as the sequence (P04629 510-796 V573M limits assumed) above, with M64V, G158A counted along it
T2 sequence (P04629 510-796 G595R limits assumed): as the sequence (P04629 510-796 V573M limits assumed) above, with M64V, G86R counted along it
T14 sequence (Q16620 538-822 V601M limits assumed): as the sequence (Q16620 538-822 F617L limits assumed) above, with V64M, L80F counted along it
T16 sequence (Q16620 538-822 G693C limits assumed): as the sequence (Q16620 538-822 F617L limits assumed) above, with L80F, G156C counted along it
T10 sequence (P04629 510-796 G667C limits assumed): as the sequence (P04629 510-796 V573M limits assumed) above, with M64V, G158C counted along it

Consider `Cc1c(C#Cc2cnc3ccc(N4CCC(O)CC4)nn23)cccc1C(=O)Nc1cc(Cl)cc(C(F)(F)F)c1` [XS3-55, N-(3-CHLORO-5-(TRIFLUOROMETHYL)PHENYL)-3-((6-(4-HYDROXYPIPERIDIN-1-YL)IMIDAZO[1,2-B]PYRIDAZINE-3-YL)ETHYNYL)-2-METHYLBENZAMIDE], for which the IC50 (commonly the point on the concentration scale where inhibition reaches its midpoint) in assay [1] is below 10 nM; in assay [2], above 1000 nM; in assay [3] it was 100 to 1000 nM; in assay [4] it was 10 to 100 nM; in assay [5] it was below 10 nM; in assay [6], 100 to 1000 nM. For the same compound, the IC50 in [7] is below 10 nM; in assay [8], below 10 nM; in [9] it was 10 to 100 nM; in [10], below 10 nM; in [11], below 10 nM; in assay [12], below 10 nM.

Turning to `Cc1c(C#Cc2cnc3ccc(N4CCOCC4)nn23)cccc1C(=O)Nc1cc(CN2CCN(C)CC2)cc(C(F)(F)F)c1` [XS3-68, 2-METHYL-N-(3-((4-METHYLPIPERAZIN-1-YL)METHYL)-5-(TRIFLUOROMETHYL)PHENYL)-3-((6-METHYLENE) LINOIMIDAZO[1,2-B]PYRIDAZIN-3-YL)ETHYNYL)BENZAMIDE], the IC50 in assay [1] was below 10 nM; in assay [13], 10 to 100 nM; in [14], below 10 nM; in assay [2], 100 to 1000 nM; in [3] it was 10 to 100 nM; in assay [4], 10 to 100 nM. The IC50 is below 10 nM in assay [5]; 100 to 1000 nM in assay [6]; below 10 nM in [7]; below 10 nM in assay [8]; 10 to 100 nM in assay [9]; 100 to 1000 nM in assay [15]. In addition, the IC50 in [16], in assay [10], in assay [11] and in [12] was below 10 nM in each case.

Regarding `Cc1c(C#Cc2cnc3ccc(N4CCC(O)CC4)nn23)cccc1C(=O)Nc1cc(CN2CCN(C)CC2)cc(C(F)(F)F)c1` [XS3-81, 3-((6-(4-HYDROXYPIPERIDIN-1-YL)IMIDAZO[1,2-B]PYRIDAZIN-3-YL)ETHYNYL)-2-METHYL-N-(3-(((4-METHYLPIPERAZIN-1-YL)METHYL)-5-(TRIFLUOROMETHYL)PHENYL)BENZAMIDE], the half-inhibitory concentration (IC50) in assay [1] was below 10 nM; in [13], 10 to 100 nM; in [14] it was below 10 nM; in assay [2], 100 to 1000 nM; in [3] it was 10 to 100 nM; in assay [4], 10 to 100 nM. Further, the IC50 in assay [5] was below 10 nM; in assay [6], 100 to 1000 nM; in assay [7] it was below 10 nM; in assay [8] it was below 10 nM; in [9] it was below 10 nM; in assay [15], 100 to 1000 nM. Also, the IC50 in [16] was 10 to 100 nM; in assay [10] it was below 10 nM; in [11], below 10 nM; in assay [12], below 10 nM.

On to `Cc1cn(-c2cc(NC(=O)c3cccc(C#Cc4cnc5ccc(N6CCC(O)CC6)nn45)c3C)cc(C(F)(F)F)c2)cn1` [XS3-87, 3-((6-(4-HYDROXYPIPERIDIN-1-YL)IMIDAZO[1,2-B]PYRIDAZIN-3-YL)ETHYNYL)-2-METHYL-N-(3-(4-METHYL-1H-IMIDAZOL-1-YL)-5-(TRIFLUOROMETHYL)PHENYL)BENZAMIDE], for which the IC50 in [1] is below 10 nM; in assay [13] it was 10 to 100 nM; in assay [14], below 10 nM; in assay [2], 100 to 1000 nM; in [3], 10 to 100 nM; in assay [4] it was below 10 nM. For the same compound, the IC50 in assay [5] was below 10 nM; in assay [6], 10 to 100 nM; in assay [7], below 10 nM; in [8], below 10 nM; in [9], below 10 nM; in assay [15], 10 to 100 nM. For the same compound, the IC50 in assay [16], in [10], in [11] and in [12] was below 10 nM in each case.
